The values below come from US5512269A, “Method of treating retained pulmonary secretions” (priority 1993, dated 1996).

One assay deals with normal airway epithelium. In words: Ussing chamber short circuit current (Isc) Cl- secretory response, normal airway epithelium primary cultures. Format: cell-based, human.
For a further assay, the system named is CF airway epithelium. As to conditions: 10^-6 M. An excerpt:
1. Ussing Chamber Studies: The Cl^- secretory response to stimulation of normal and CF airway epithelium was studied under short circuit (Isc) conditions employing tissues mounted in Ussing chambers. Ussing chambers are well known in the art and the manner of their use in the present example would be readily apparent to one skilled in the art.

Assay [1] concerns CFT43 cell line (intracellular cAMP). As to conditions: CFT43 cells, duramycin stimulation. An excerpt:
(§1) 4. Mechanisms of Action: Preliminary studies were also done investigating possible mechanisms of action.

Assay [2] deals with CFT43 cell line (phospholipase C, inositol phosphates). As to conditions: CFT43 cells, duramycin stimulation.
Text: as §1

For assay [3], the system named is canine trachea airway surface liquid. As to conditions: dog. As for the experimental part:
1. The Animal Model: The model developed employed 30 kg male dogs that were anesthetized with intravenous pentobarbital and maintained on a intravenous infusion of normal saline at 75 cc/hour. The dogs were intubated. Ventilatory support was provided by a Harvard™ piston pump. Adequate ventilation and oxygenation were documented by arterial blood gas studies. Peak airway pressures (PAP) were measured and continuous monitoring of hemoglobin saturation was accomplished by pulse oximetry.
Drug and vehicle were delivered through the endotracheal tube. The drug was nebulized employing a Pulmo-Aid™ Compressor and a DeVilbiss™ nebulizer. The drug (50 μM; 3 ml) in a saline vehicle or the saline vehicle alone (control) was nebulized for 6 minutes during which 0.7 ml thereof was delivered to the animal. […] After 6 minutes, a clean and dry nebulizer was exchanged for the test nebulizer containing the drug or vehicle. The investigators were blinded as to whether drug or vehicle was given.
2. Measurements of airway fluid: Airway liquid measurements were made by applying dry preweighed filter paper to the cartilaginous portions of the airway for 20 seconds. This was accomplished employing transbronchial biopsy forceps to grasp the papers. The forceps and papers were stored in plastic catheters. Sampling the airway liquid was accomplished by first inserting the bronchoscope through the endotracheal tube. Care was taken not to allow contact between mucosa and the bronchoscope. The catheter containing the biopsy forceps and filter papers was introduced into the airway lumen through the channel in the bronchoscope. The biopsy forceps were then pushed out of the catheter and the filter papers gently applied to the mucosa. After 20 seconds the biopsy forceps and filter papers were pulled back into the catheter and removed through the bronchoscope for weighing. The filter papers were accessed for weighing by again pushing the forceps holding the filter paper out of the catheter. In order to account for evaporative losses from the filter papers when exposed to room air, the time required to place the papers on the scales and perform the initial weighing was recorded. Three subsequent weighings over time were then made. A regression line was calculated. The weight of the filter papers at time zero, that is when they were maximally wet, was defined as the time when the filter papers were pushed out of the catheter after having been applied to the airway mucosa. The amount of fluid on the filter paper was taken as the difference between the dry weight of the papers and their weight at time zero. Each set of samples to be compared were further corrected for differences in the initial weight of the dry filter papers.
The goal of the first protocol was to study the effects on airway surfaces liquid of (1) repeatedly sampling the airway, and (2) nebulizing the normal saline vehicle.
Protocol 1 required, immediately prior to conducting the test studies, weighing and loading the filter papers into catheters. Ten separate catheter-forceps-filter paper set-ups were available. Ten measurements of airway liquid were then made in different areas of the trachea over a thirty-minute period, with measurements made at three minute intervals. The catheters were then reloaded and the saline vehicle nebulized onto the airway. Ten more measurements of airway surface liquid were then made over another thirty minute period.
Protocol 2 required sampling the airway every four minutes to obtain 30 measurements of airway liquid. This required reloading the 10 catheters twice during each experiment. Each reloading required 20 minutes. This protocol allowed the airway to be sampled over 160 minutes. Drug and vehicle administration were separated by one week in any one animal.

Assay [4] has as its system Mycobacterium tuberculosis 57778. Format: cell-based. The conditions noted are these: for susceptibility of strain 57778 to drug: streptomycin 6 μg/ml, isoniazid 0.2 μg/ml, rifampin 2 μg/ml, ethambutol 7.5 μg/ml.
In assay [5] the test system is Mycobacterium tuberculosis 63169. Format: cell-based. As to conditions: for susceptibility of strain 63169 to drug: streptomycin 6 μg/ml, isoniazid 0.2 μg/ml, rifampin 2 μg/ml, ethambutol 7.5 μg/ml.
In assay [6] the test system is Mycobacterium tuberculosis 65021. Format: cell-based. As to conditions: for susceptibility of strain 65021 to drug: streptomycin 6 μg/ml, isoniazid 0.2 μg/ml, rifampin 2 μg/ml, ethambutol 7.5 μg/ml.
Assay [7] has as its system Mycobacterium tuberculosis drug sensitive laboratory strain. Format: cell-based. As to conditions: for susceptibility of drug-sensitive laboratory strain to drug: streptomycin 6 μg/ml, isoniazid 0.2 μg/ml, rifampin 2 μg/ml, ethambutol 7.5 μg/ml.
In assay [8] the test system is sheep airway surface liquid. The conditions noted are these: sheep model, W. Mentz et al.; cited from earlier work.

On to duramycin, for which the “peak Isc (Cl- current) after duramycin” value in the assay on normal airway epithelium (10^-6 M duramycin, normal tissues after amiloride and forskolin (10 μM), baseline 20 μA/cm^2 after amiloride) came out at 50 μA/cm^2. Besides, the “Cl- secretory response in normal tissue” value in the assay on normal airway epithelium (10^-6 M, seven normal tissues) is recorded as “significant Cl^- secretory response”. The “Isc response to duramycin, control bathing solution” value in the assay on normal airway epithelium (10^-6 M, solution containing both Na+ and Cl-) is reported as “responded by increasing the Isc”. Besides, the “Isc response to duramycin, Cl- free bathing solution” value in the assay on normal airway epithelium (10^-6 M, solution without Cl-) is given as “markedly attenuated response”. Moreover, the “Isc response to duramycin, Na+ free bathing solution” value with normal airway epithelium (10^-6 M, solution without Na+) is listed as “responded by increasing the Isc”. In the assay on normal airway epithelium (dose response study), the “concentration giving maximal response” value is recorded as 10^-6 M. In the assay with normal airway epithelium (dose response study, Isc response), this compound returned an ED50 of 300 nM. In addition, the “duration of increase in Isc (Cl- secretory response)” value in the assay on normal airway epithelium (in some instances) was more than 1 h. Also, the “Cl- secretory response (change in Isc) in CF tissue relative to normal tissue” value in the assay on CF airway epithelium was “approximately twice”. For the same compound, in the assay on CF airway epithelium (five CF tissues), the “Cl- secretory response in CF tissue” value is listed as “significant Cl^- secretory response”. For the same compound, the “intracellular cAMP levels” value in assay [1] is “did not cause intracellular cAMP levels to rise”. Also, in assay [2], the “inositol phosphates (IPs) produced” value was “no detectable amounts of IPs”. Further, the “increase in amount of fluid recovered over baseline, Protocol 2” value in assay [3] (160 minutes, vehicle first then duramycin one week later) is on record as “several-fold increase”. Besides, the “return of airway surface liquid to baseline” value in assay [3] (Protocol 1) is on record as “did not return to baseline even two hours following its administration”. Also, the “surface airway liquid after vehicle one week following duramycin” value in [3] (Protocol 2, duramycin given first) was “remained elevated”. Further, the “amount of fluid recovered from the airway, Protocol 1” value in [3] (nebulized duramycin, 30 minute measurement period) was “marked and sustained increase”. Also, the “increase in airway surface liquid recovered compared to vehicle controls” value in [3] (vehicle first, p=0.0179 (paired), p=0.0335 (unpaired), n=6) is “significant”. For the same compound, the “average change in amount of fluid recovered” value in [3] (versus vehicle) is “doubling”. In addition, in assay [4] (100 μM duramycin), the “activity on growth (growth index over 12 days), strain 57778” value is reported as “equally as effective as ethambutol”. For the same compound, the “activity on growth (growth index over 12 days), strain 63169” value in assay [5] (100 μM duramycin) was “approximately equal to that of the two drugs now known to be effective against this strain”. Also, the “activity on growth (growth index over 12 days), strain 65021” value in assay [6] (100 μM duramycin) is “significantly more activity against this strain than any of the four traditional anti-tuberculosis drugs tested”. The “activity on growth (growth index over 12 days), drug-sensitive laboratory strain” value in assay [7] (100 μM duramycin) is “less active in vitro than streptomycin, isoniazid, rifampin, or ethambutol”.
Turning to `CO[C@H]1/C=C/O[C@@]2(C)Oc3c(C)c(O)c4c(O)c(c(/C=N/N5CCN(C)CC5)c(O)c4c3C2=O)NC(=O)/C(C)=C\C=C\[C@H](C)[C@H](O)[C@@H](C)[C@@H](O)[C@@H](C)[C@H](OC(C)=O)[C@@H]1C` [rifampin], the “susceptibility of strain 57778 to drug” value in assay [4] was “resistant”. Moreover, the “susceptibility of strain 63169 to drug” value in [5] is listed as “resistant”. Besides, the “susceptibility of strain 65021 to drug” value in assay [6] was “resistant”. The “susceptibility of drug-sensitive laboratory strain to drug” value in [7] is recorded as “sensitive”.
Turning to `[H]/N=C(/N)N[C@H]1[C@H](O)[C@@H](O)[C@H](O[C@@H]2O[C@@H](C)[C@](O)(C=O)[C@H]2O[C@@H]2O[C@@H](CO)[C@H](O)[C@@H](O)[C@@H]2NC)[C@@H](N/C(N)=N\[H])[C@@H]1O` [streptomycin], in assay [4], the “susceptibility of strain 57778 to drug” value is “resistant”. In addition, in assay [5], the “susceptibility of strain 63169 to drug” value is given as “sensitive”. In assay [6], the “susceptibility of strain 65021 to drug” value is on record as “resistant”. The “susceptibility of drug-sensitive laboratory strain to drug” value in assay [7] is “sensitive”.
With `N=C(N)NC(=O)c1nc(Cl)c(N)nc1N` [amiloride], the “increase in airway fluid after amiloride treatment” value in assay [8] is given as approximately 50%.
In the case of `NNC(=O)c1ccncc1` [isoniazid], the “susceptibility of strain 57778 to drug” value in assay [4] is recorded as “resistant”. In addition, in assay [5], the “susceptibility of strain 63169 to drug” value was “resistant”. Also, the “susceptibility of strain 65021 to drug” value in assay [6] is recorded as “resistant”. For the same compound, in [7], the “susceptibility of drug-sensitive laboratory strain to drug” value is listed as “sensitive”.
Take `Nc1ncnc2c1ncn2[C@@H]1O[C@H](COP(=O)(O)OP(=O)(O)OP(=O)(O)O)[C@@H](O)[C@H]1O` [ATP, reference compound]: the “time course of Cl- secretory response (Isc)” value in the assay on normal airway epithelium (comparison agonist) is “rapid onset of action and a rapid return to the baseline current”.
`CC[C@@H](CO)NCCN[C@@H](CC)CO` [ethambutol]: the “susceptibility of strain 57778 to drug” value in [4] was “sensitive”. For the same compound, the “susceptibility of strain 63169 to drug” value in [5] was “sensitive”. Further, the “susceptibility of strain 65021 to drug” value in assay [6] is “partially resistant”. Besides, in [7], the “susceptibility of drug-sensitive laboratory strain to drug” value is “sensitive”.
